Experimental data taken from patent US9475817B2 (BRISTOL-MYERS SQUIBB COMPANY, priority 2012, dated 2016).

How the values were obtained:
[1] = biological target: CK1δ (Homo sapiens (Human), UniProt P48730); experiment: CK1δ kinase assay (Caliper LabChip, fluoresceinated peptide substrate); assay type: biochemical; conditions: 200 pM CK1δ, 50 μM ATP, 1.5 μM peptide substrate, 22 hours room temperature
Description: (§1) CK1ε and CK1δ Kinase Assays
(§2) The kinase assay was performed in V-bottom 384-well plates. […] The reaction was incubated at room temperature for 22 hours and terminated by adding 45 μl of 35 mM EDTA to each sample. […] Compounds were dissolved at 10 mM in dimethylsulfoxide (DMSO) and evaluated at eleven concentrations. IC50 values were derived by non-linear regression analysis.

[2] = biological target: CK1ε (Homo sapiens (Human), UniProt P49674); experiment: CK1ε kinase assay (Caliper LabChip, fluoresceinated peptide substrate); assay type: biochemical; conditions: 200 pM CK1ε, 50 μM ATP, 1.5 μM peptide substrate, 22 hours room temperature
Description: as §1, §2

Sequence of CK1δ (P48730 whole entry): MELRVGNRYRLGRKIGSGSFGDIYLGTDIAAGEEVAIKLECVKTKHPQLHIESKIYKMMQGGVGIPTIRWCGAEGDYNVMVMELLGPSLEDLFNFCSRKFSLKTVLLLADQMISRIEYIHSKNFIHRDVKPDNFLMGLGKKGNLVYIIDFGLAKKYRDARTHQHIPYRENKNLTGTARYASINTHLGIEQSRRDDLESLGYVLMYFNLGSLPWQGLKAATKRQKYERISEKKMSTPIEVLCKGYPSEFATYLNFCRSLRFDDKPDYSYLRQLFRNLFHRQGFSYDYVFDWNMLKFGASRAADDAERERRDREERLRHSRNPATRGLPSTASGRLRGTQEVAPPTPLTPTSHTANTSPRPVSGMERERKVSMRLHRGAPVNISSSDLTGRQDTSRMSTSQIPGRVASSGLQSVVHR
Sequence of CK1ε (P49674 whole entry): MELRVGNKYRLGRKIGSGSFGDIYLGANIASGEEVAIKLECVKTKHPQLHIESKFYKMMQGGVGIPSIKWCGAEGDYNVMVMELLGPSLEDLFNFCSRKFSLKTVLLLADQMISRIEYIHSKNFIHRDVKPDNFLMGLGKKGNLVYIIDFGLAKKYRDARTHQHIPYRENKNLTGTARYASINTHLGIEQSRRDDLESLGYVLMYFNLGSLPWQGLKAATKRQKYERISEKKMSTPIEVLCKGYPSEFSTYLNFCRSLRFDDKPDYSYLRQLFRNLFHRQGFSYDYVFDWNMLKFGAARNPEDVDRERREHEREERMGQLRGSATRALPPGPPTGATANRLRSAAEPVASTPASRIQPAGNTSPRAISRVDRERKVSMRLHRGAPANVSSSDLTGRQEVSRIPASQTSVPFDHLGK

SMILES | IC50 [1] [nM] | IC50 [2] [nM]
CN(C)c1ccc(C(=O)Nc2cn3nc(-c4cn(C)nc4-c4ccc(F)cc4)ccc3n2)cn1 [Compound 66, 6-(dimethylamino)-N-(6-(3-(4-fluorophenyl)-1-methyl-1H-pyrazol-4-yl)imidazo[1,2-b]pyridazin-2-yl)nicotinamide] | 2.8 | 6.6
COc1cccc(C(=O)Nc2cn3nc(-c4cn(C)nc4-c4ccc(F)cc4)ccc3n2)n1 [Compound 67, N-(6-(3-(4-fluorophenyl)-1-methyl-1H-pyrazol-4-yl)imidazo[1,2-b]pyridazin-2-yl)-6-methoxypicolinamide] | 14.2 | 13.3
Cn1cc(-c2ccc3nc(NC(=O)c4ccc(OCC(F)(F)F)nc4)cn3n2)c(-c2ccc(F)cc2)n1 [Compound 68, N-(6-(3-(4-fluorrophenyl)-1-methyl-1H-pyrazol-4-yl)imidazo[1,2-b]pyridazin-2-yl)-6-(2,2,2-trifluoroethoxy)nicotinamide] | 4.4 | 28.1
Cn1cc(-c2ccc3nc(NC(=O)c4ccnc(N5CCOCC5)c4)cn3n2)c(-c2ccc(F)cc2)n1 [Compound 69, N-(6-(3-(4-fluorophenyl)-1-methyl-1H-pyrazol-4-yl)imidazo[1,2-b]pyridazin-2-yl)-2-morpholinoisonicotinamide] | 2.3 | 4.8
Cn1cc(-c2ccc3nc(NC(=O)c4cncc(O)c4)cn3n2)c(-c2ccc(F)cc2)n1 [Compound 70, N-(6-(3-(4-fluorophenyl)-1-methyl-1H-pyrazol-4-yl)imidazo[1,2-b]pyridazin-2-yl)-5-hydroxynicotinamide] | 2 | 4.7
Cn1cc(-c2ccc3nc(NC(=O)c4ccc(-n5cccn5)nc4)cn3n2)c(-c2ccc(F)cc2)n1 [Compound 71, N-(6-(3-(4-fluorophenyl)-1-methyl-1H-pyrazol-4-yl)imidazo[1,2-b]pyridazin-2-yl)-6-(1H-pyrazol-1-yl)nicotinamide] | 3.8 | 17.3
Cn1cc(-c2ccc3nc(NC(=O)c4ccc(CCN5CCCC5)nc4)cn3n2)c(-c2ccc(F)cc2)n1 [Compound 72, N-(6-(3-(4-fluorophenyl)-1-methyl-1H-pyrazol-4-yl)imidazo[1,2-b]pyridazin-2-yl)-6-(2-(pyrrolidin-1-yl)ethyl)nicotinamide] | 10 | 27.8
Cc1ccncc1C(=O)Nc1cn2nc(-c3cn(C)nc3-c3ccc(F)cc3)ccc2n1 [Compound 73, N-(6-(3-(4-fluorophenyl)-1-methyl-1H-pyrazol-4-yl)imidazo[1,2-b]pyridazin-2-yl)-4-methylnicotinamide] | 2.6 | 6.4
Cn1cc(-c2ccc3nc(NC(=O)c4ccc(C(F)(F)F)cn4)cn3n2)c(-c2ccc(F)cc2)n1 [Compound 74, N-(6-(3-(4-fluorophenyl)-1-methyl-1H-pyrazol-4-yl)imidazo[1,2-b]pyridazin-2-yl)-5-(trifluoromethyl) picolinamide] | 34.6 | 232
COc1ccc(C(=O)Nc2cn3nc(-c4cn(C)nc4-c4ccc(F)cc4)ccc3n2)c(OC)n1 [Compound 75, N-(6-(3-(4-fluorophenyl)-1-methyl-1H-pyrazol-4-yl)imidazo[1,2-b]pyridazin-2-yl)-2,6-dimethoxynicotinamide] | 41 | 363
CCc1ccc(C(=O)Nc2cn3nc(-c4cn(C)nc4-c4ccc(F)cc4)ccc3n2)nc1 [Compound 76, 5-ethyl-N-(6-(3-(4-fluorrophenyl)-1-methyl-1H-pyrazol-4-yl)imidazo[1,2-b]pyridazin-2-yl)picolinamide] | 11.9 | 64
Cc1ncccc1C(=O)Nc1cn2nc(-c3cn(C)nc3-c3ccc(F)cc3)ccc2n1 [Compound 78, N-(6-(3-(4-fluorophenyl)-1-methyl-1H-pyrazol-4-yl)imidazo[1,2-b]pyridazin-2-yl)-2-methylnicotinamide] | 3.3 | 11
Cn1cc(-c2ccc3nc(NC(=O)c4ccccc4)cn3n2)c(-c2ccc(F)cc2)n1 [Compound 81, N-(6-(3-(4-fluorophenyl)-1-methyl-1H-pyrazol-4-yl)imidazo[1,2-b]pyridazin-2-yl)benzamide] | 5.4 | 5.6
Cn1cc(-c2ccc3nc(NC(=O)c4ncc(-c5ccccn5)s4)cn3n2)c(-c2ccc(F)cc2)n1 [Compound 82, N-(6-(3-(4-fluorophenyl)-1-methyl-1H-pyrazol-4-yl)imidazo[1,2-b]pyridazin-2-yl)-5-(pyridin-2-yl)thiazole-2-carboxamide] | 3.3 | 71.5
COc1ncc(C(=O)Nc2cn3nc(-c4cn(C)nc4-c4ccc(F)cc4)ccc3n2)cn1 [Compound 84, N-(6-(3-(4-fluorophenyl)-1-methyl-1H-pyrazol-4-yl)imidazo[1,2-b]pyridazin-2-yl)-2-methoxypyrimidine-5-carboxamide] | 435 | 1020
Cn1cc(-c2ccc3nc(NC(=O)C4CC4)cn3n2)c(-c2ccc(F)cc2)n1 [Compound 85, N-(6-(3-(4-fluorophenyl)-1-methyl-1H-pyrazol-4-yl)imidazo[1,2-b]pyridazin-2-yl)cyclopropanecarboxamide] | 7 | 50.1
Cn1cc(-c2ccc3nc(NC(=O)C4CCCC4)cn3n2)c(-c2ccc(F)cc2)n1 [Compound 86, N-(6-(3-(4-fluorophenyl)-1-methyl-1H-pyrazol-4-yl)imidazo[1,2-b]pyridazin-2-yl)cyclopentanecarboxamide] | 5.6 | 15.7
Cn1cc(-c2ccc3nc(NC(=O)C4CCCCCC4)cn3n2)c(-c2ccc(F)cc2)n1 [Compound 88] | 4.2 | 10.5
Cn1cc(-c2ccc3nc(NC(=O)C4CCC4)cn3n2)c(-c2ccc(F)cc2)n1 [Compound 89, N-(6-(3-(4-fluorophenyl)-1-methyl-1H-pyrazol-4-yl)imidazo[1,2-b]pyridazin-2-yl)cyclobutanecarboxamide] | 7.1 | 25.8
Cn1cc(-c2ccc3nc(NC(=O)C45CCCC(CCC4)C5)cn3n2)c(-c2ccc(F)cc2)n1 [Compound 92, N-(6-(3-(4-fluorophenyl)-1-methyl-1H-pyrazol-4-yl)imidazo[1,2-b]pyridazin-2-yl)bicyclo[3.3.1]nonane-1-carboxamide] | 5.5 | 10.5
Cn1cc(-c2ccc3nc(NC(=O)C45CC6CC(CC(C6)C4)C5)cn3n2)c(-c2ccc(F)cc2)n1 [Compound 93, (3,5,7)-N-(6-(3-(4-fluorophenyl)-1-methyl-1H-pyrazol-4-yl)imidazo[1,2-b]pyridazin-2-yl)adamantane-1-carboxamide] | 4.1 | 6
Cn1cc(-c2ccc3nc(NC(=O)C45CC6CC(C)(CC(C)(C6)C4)C5)cn3n2)c(-c2ccc(F)cc2)n1 [Compound 94, (1,3,5S7)-N-(6-(3-(4-fluorophenyl)-1-methyl-1H-pyrazol-4-yl)imidazo[1,2-b]pyridazin-2-yl)-3,5-dimethyladamantane-1-carboxamide] | 8.3 | 34.4
Cc1nc(C(F)(F)F)ccc1C(=O)Nc1cn2nc(-c3cn(C)nc3-c3ccc(F)cc3)ccc2n1 [Compound 95, N-(6-(3-(4-fluorophenyl)-1-methyl-1H-pyrazol-4-yl)imidazo[1,2-b]pyridazin-2-yl)-2-methyl-6-(trifluoromethyl)nicotinamide] | 6.5 | 17.2
Cn1cc(-c2ccc3nc(NC(=O)c4ccccn4)cn3n2)c(-c2ccc(F)cc2)n1 [Compound 96, N-(6-(3-(4-fluorophenyl)-1-methyl-1H-pyrazol-4-yl)imidazo[1,2-b]pyridazin-2-yl)picolinamide] | 11.8 | 42
Cn1cc(-c2ccc3nc(NC(=O)CC(F)(F)F)cn3n2)c(-c2ccc(F)cc2)n1 [Compound 99, 3,3,3-trifluoro-N-(6-(3-(4-fluorophenyl)-1-methyl-1H-pyrazol-4-yl)imidazo[1,2-b]pyridazin-2-yl)propanamide] | 10.3 | 47.3
Cn1cc(-c2ccc3nc(NC(=O)c4cc(O)ncn4)cn3n2)c(-c2ccc(F)cc2)n1 [Compound 100, N-(6-(3-(4-fluorophenyl)-1-methyl-1H-pyrazol-4-yl)imidazo[1,2-b]pyridazin-2-yl)-6-hydroxypyrimidine-4-carboxamide] | 9.4 | 28.8
O=C(Nc1cn2nc(-c3cn(C4CC4)nc3-c3ccc(F)cc3)ccc2n1)C1CC1 [Compound 101, N-(6-(1-Cyclopropyl-3-(4-fluorophenyl)-1H-pyrazol-4-yl)imidazo[1,2-b]pyridazin-2-yl)cyclopropanecarboxamide] | 28.1 | 170
O=C(Nc1cn2nc(-c3cn(C4CC4)nc3-c3ccc(F)cc3)ccc2n1)c1ccncc1 [Compound 102, N-(6-(1-Cyclopropyl-3-(4-fluorophenyl)-1H-pyrazol-4-yl)imidazo[1,2-b]pyridazin-2-yl)isonicotinamide] | 3 | 9.9
O=C(Nc1cn2nc(-c3cn(C4CC4)nc3-c3ccc(F)cc3)ccc2n1)c1csc(-c2ccncc2)n1 [Compound 103, N-(6-(1-Cyclopropyl-3-(4-fluorophenyl)-1H-pyrazol-4-yl)imidazo[1,2-b]pyridazin-2-yl)-2-(pyridin-4-yl)thiazole-4-carboxamide] | 8.5 | 74.9
O=C(Nc1cn2nc(-c3cn(C4CC4)nc3-c3ccc(F)cc3)ccc2n1)c1ccnc(F)c1 [Compound 104, N-(6-(1-cyclopropyl-3-(4-fluorophenyl)-1H-pyrazol-4-yl)imidazo[1,2-b]pyridazin-2-yl)-2-fluoroisonicotinamide] | 3.2 | 15.2
